# Assay results published in paper PMC6934184, “Selective DNA-PKcs inhibition extends the therapeutic index of localized radiotherapy and chemotherapy” (The Journal of Clinical Investigation, 2019).
# Molecular target: T1, MAP4K2 (GCK) (Homo sapiens, UniProt Q12851)
# T1 construct: purchased Thermo Fisher Scientific (Life Technologies) SelectScreen
# Test: SelectScreen Z'LYTE
# Type: biochemical
# How it was run: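 Percent values come from Thermo SelectScreen profiling of NU5455, combining activity and binding assays. CSF1R was run in Z'LYTE format at Km app ATP, and CAMK1 in Adapta format with ATP listed at 10.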
# T1 sequence (Q12851 whole entry): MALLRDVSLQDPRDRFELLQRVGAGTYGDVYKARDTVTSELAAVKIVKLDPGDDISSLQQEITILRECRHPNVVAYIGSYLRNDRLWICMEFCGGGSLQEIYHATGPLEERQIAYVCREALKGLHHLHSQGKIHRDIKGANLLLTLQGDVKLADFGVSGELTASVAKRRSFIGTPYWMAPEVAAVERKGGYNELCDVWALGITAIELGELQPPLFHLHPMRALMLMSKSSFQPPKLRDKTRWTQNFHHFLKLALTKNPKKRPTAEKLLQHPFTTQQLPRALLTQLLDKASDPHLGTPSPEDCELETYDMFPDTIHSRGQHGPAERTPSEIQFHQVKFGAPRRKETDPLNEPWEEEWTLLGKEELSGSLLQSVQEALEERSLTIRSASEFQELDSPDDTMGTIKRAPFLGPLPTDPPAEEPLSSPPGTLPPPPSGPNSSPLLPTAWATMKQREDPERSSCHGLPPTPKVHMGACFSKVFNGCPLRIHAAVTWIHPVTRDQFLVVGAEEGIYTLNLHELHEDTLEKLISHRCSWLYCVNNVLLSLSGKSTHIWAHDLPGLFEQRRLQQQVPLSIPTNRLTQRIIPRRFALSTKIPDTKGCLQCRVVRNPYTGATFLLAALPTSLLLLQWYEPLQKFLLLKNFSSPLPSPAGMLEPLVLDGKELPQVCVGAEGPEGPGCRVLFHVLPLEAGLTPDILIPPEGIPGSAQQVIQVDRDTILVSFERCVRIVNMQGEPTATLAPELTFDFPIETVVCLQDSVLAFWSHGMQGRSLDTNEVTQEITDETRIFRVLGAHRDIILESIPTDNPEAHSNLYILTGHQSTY
compound,measurement,value
CN(C(=O)CN1CCOCC1)c1ccc2sc3c(-c4cccc5c(=O)cc(N6CC7CCC(C6)O7)oc45)cccc3c2c1 [NU5455],inhibition at 1 µM,2.7%
